For one test, the target named is PI 3-kinase beta (Homo sapiens (Human), UniProt P42338). The experiment in a line: Kinase Glo Luminescent Kinase Assay (Assay B). It is filed as biochemical. As to conditions: 1 μM ATP, read-out: Assay B PI3Kβ IC50. From the text: (§1) Kinase Glo Luminescent Kinase Assay (Kglo) for PI 3-Kinase Alpha (A), Pb 3-Kinase Beta (B), Vps34 (C), PI 4-Kinase Beta (D)
(§2) The luminescence-based ATP detection reagent KinaseGlo was obtained from Promega, (Cat. No. V6714, Lot No. 236161) through Catalys, Wallisellen, Switzerland. L-alpha-phosphatidylinositol (PI, liver, bovine) was obtained from Avanti Polar Lipid (Cat. No. 840042C, Lot#LPI-274), Phosphatidylinositol-4,5-bisphosphate (PIP(4,5)2) was also obtained from Avanti Polar Lipid (Cat. No. 840046X). L-α-Phosphatidylserine (PS) was obtained from Avanti Polar Lipid (Cat. No. 840032C), n-Octylglucoside from Avanti Polar Lipid (Cat. No. 10634425001). Luminescence is a well established readout to determine ATP concentrations and can thus be used to follow the activity of many kinases regardless of their substrate. The Kinase Glo Luminescent Kinase Assay (Promega, Madison/WI, USA) is a homogeneous HTS method of measuring kinase activity by quantifying the amount of ATP remaining in solution following a kinase reaction.
(§3) 50 nL of compound dilutions were dispensed onto black 384-well low volume Non Binding Styrene (NBS) plates (Costar Cat. No. NBS#3676). L-α-phosphatidylinositol (PI), provided as 10 mg/ml solution in methanol, was transferred into a glass tube and dried under a nitrogen beam. It was then resuspended in 3% OctylGlucoside (1-O-n-octyl-beta-D-glucopyranoside) by vortexing and stored at 4° C. 5 μL of a mix of PI/OctylGlucoside with the PI 3-kinase alpha and PI 3-kinase beta subtypes, or Vps34 or PI 4-kinase beta were added. Kinase reactions were started by the addition of 5 μl of an ATP-mix containing in a final volume 10 μL 10 mM TRIS-HCl pH 7.5, 3 mM MgCl2, 50 mM NaCl, 0.05% CHAPS, 1 mM DTT and 1 μM ATP at room temperature. Reactions were stopped with 10 μl of KinaseGlo and plates were read 10 mins later in a Synergy2 reader using an integration time of 0.1 seconds per well. 2.5 μM of NVP-BGT226 (1-(3-(trifluoromethyl)-4-(piperazin-1-yl)phenyl)-8-(6-methoxypyridin-3-yl)-3-methyl-1H-imidazo[4,5-c]quinolin-2(3H)-one) was added to the assay plates to generate the 100% inhibition of the kinase reaction, and the 0% inhibition was given by the solvent vehicle (90% DMSO in water). (1-(3-(trifluoromethyl)-4-(piperazin-1-yl)phenyl)-8-(6-methoxypyridin-3-yl)-3-methyl-1H-imidazo[4,5-c]quinolin-2(3H)-one) was used as a reference compound and included in all assay plates in the form of 16 dilution points in duplicate.
(§4) IC50 values of the percentage inhibition of each compound at 8 concentrations (10, 3.0, 1.0, 0.3, 0.1, 0.030, 0.010 and 0.003 μM) n=2 were derived by fitting a sigmoidal dose-response curve to a plot of assay readout over inhibitor concentration as described. All fits were performed with the program XLfit4 (ID Business Solutions, Guildford, UK).
A general note: Kinase-Glo reads ATP consumption through a luciferase reaction.

The next test concerns the target Vps34 (Homo sapiens (Human), UniProt Q8NEB9). Nature of the test: Kinase Glo Luminescent Kinase Assay (Assay C). The test is classed as biochemical. As to conditions: 1 μM ATP.
Source text: as §1, §2, §3, §4

Each structure is given as a SMILES string.

Sequence of PI 3-kinase beta (P42338 2-1070): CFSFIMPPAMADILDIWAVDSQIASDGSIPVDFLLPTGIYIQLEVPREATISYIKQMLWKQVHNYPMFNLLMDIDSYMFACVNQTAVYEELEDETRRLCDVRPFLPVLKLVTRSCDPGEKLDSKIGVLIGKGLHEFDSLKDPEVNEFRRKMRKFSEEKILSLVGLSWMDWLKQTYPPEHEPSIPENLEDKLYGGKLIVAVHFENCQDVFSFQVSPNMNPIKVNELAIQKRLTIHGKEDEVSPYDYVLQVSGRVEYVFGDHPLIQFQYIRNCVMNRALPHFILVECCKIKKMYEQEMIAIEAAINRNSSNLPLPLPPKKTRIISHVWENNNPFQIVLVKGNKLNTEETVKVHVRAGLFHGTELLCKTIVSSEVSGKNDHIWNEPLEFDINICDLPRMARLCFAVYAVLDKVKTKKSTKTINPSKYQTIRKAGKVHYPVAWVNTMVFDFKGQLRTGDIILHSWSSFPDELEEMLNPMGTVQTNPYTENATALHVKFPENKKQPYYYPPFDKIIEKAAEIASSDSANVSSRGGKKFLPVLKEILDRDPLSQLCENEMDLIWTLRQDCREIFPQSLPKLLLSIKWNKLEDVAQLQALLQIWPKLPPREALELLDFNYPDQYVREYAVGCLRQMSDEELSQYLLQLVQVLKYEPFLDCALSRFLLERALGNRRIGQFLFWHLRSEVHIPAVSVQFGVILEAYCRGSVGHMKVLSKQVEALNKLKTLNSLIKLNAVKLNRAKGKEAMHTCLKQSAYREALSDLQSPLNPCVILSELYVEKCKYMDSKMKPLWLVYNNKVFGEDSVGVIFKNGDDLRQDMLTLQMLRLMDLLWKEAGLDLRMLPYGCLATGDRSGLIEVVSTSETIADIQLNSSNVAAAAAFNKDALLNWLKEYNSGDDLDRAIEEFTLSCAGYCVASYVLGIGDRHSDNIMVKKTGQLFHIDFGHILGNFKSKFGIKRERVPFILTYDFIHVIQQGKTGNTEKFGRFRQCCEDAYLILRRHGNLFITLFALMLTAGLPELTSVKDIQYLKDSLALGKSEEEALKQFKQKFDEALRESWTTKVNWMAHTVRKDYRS
Sequence of Vps34 (Q8NEB9 whole entry, species assumed): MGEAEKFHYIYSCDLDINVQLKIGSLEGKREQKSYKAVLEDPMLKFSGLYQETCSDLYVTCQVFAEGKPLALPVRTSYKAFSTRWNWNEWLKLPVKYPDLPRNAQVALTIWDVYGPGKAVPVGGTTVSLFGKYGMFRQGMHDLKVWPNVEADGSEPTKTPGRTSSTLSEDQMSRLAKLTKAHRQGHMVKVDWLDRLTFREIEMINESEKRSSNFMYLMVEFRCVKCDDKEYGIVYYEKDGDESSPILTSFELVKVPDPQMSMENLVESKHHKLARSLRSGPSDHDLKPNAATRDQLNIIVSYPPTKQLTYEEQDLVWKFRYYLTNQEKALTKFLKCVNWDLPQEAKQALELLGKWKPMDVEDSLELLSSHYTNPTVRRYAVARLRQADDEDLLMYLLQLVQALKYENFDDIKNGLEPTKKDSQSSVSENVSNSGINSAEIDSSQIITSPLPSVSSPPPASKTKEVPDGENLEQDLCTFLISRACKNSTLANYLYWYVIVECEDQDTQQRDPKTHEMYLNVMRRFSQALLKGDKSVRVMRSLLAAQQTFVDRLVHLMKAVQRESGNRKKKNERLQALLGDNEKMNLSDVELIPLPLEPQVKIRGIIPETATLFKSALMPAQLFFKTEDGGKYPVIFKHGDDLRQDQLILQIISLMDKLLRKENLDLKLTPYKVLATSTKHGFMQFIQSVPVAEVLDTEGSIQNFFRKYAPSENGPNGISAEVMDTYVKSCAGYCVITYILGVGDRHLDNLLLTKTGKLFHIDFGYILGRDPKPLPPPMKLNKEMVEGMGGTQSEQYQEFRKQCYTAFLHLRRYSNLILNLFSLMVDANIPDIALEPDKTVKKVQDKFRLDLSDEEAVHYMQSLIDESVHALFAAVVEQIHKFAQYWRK

As usually defined, the IC50 is the point on the concentration scale where inhibition reaches its midpoint. Consider `Cc1ncc(-c2cncc(-c3cc(S(=O)(=O)NCCCO)ccc3C)n2)s1` [Example 1, N-(3-Hydroxy-propyl)-4-methyl-3-[6-(2-methyl-thiazol-5-yl)-pyrazin-2-yl]-benzenesulfonamide], for which the IC50 came to 6.16 µM at PI 3-kinase beta and 3.07 µM at Vps34.
On the same counts, the results for `Cc1ccc(S(=O)(=O)NCC(C)(C)O)cc1-c1cncc(-c2cn(C)nc2C)n1` [Example 2, 3-[6-(1,3-Dimethyl-1H-pyrazol-4-yl)-pyrazin-2-yl]-N-(2-hydroxy-2-methyl-propyl)-4-methyl-benzenesulfonamide] are 0.71 µM and 3.45 µM.
On the same counts, the results for `Cc1ccc(S(=O)(=O)NCCC(C)(C)O)cc1-c1cncc(-c2cn(C)nc2C)n1` [Example 3, 3-[6-(1,3-Dimethyl-1H-pyrazol-4-yl)-pyrazin-2-yl]-N-(3-hydroxy-3-methyl-butyl)-4-methyl-benzenesulfonamide] are 1.45 µM and 5.3 µM.
On the same counts, the results for `Cc1ccc(S(=O)(=O)NCC2(C)COC2)cc1-c1cncc(-c2cn(C)nc2C)n1` [Example 4, Trans 3-[6-(1,3-Dimethyl-1H-pyrazol-4-yl)-pyrazin-2-yl]-4-methyl-N-(3-methyl-oxetan-3-ylmethyl)-benzenesulfonamide] are 0.68 µM and 4.3 µM.
In the case of `Cc1ncc(-c2cncc(-c3cc(S(=O)(=O)N[C@H]4CC[C@H](O)CC4)ccc3C)n2)s1` [Example 5, Trans N-(4-Hydroxycyclohexyl)-4-methyl-3-(6-(2-methylthiazol-5-yl)pyrazin-2-yl)benzenesulfonamide], the IC50 is 1.12 µM on PI 3-kinase beta and 1.81 µM at Vps34.
On the same counts, the results for `Cc1ccc(S(=O)(=O)NCC(C)(C)CO)cc1-c1cncc(-c2cn(C)nc2C)n1` [Example 8, 3-[6-(1,3-Dimethyl-1H-pyrazol-4-yl)-pyrazin-2-yl]-N-(3-hydroxy-2,2-dimethyl-propyl)-4-methyl-benzenesulfonamide] are 0.68 µM and 4.4 µM.
On the same counts, the results for `Cc1ccc(S(=O)(=O)NCCC(C)(C)O)cc1-c1cncc(-c2cnn(CCN3CCOCC3)c2)n1` [Example 9, N-(3-Hydroxy-3-methyl-butyl)-4-methyl-3-{6-[1-(2-morpholin-4-yl-ethyl)-1H-pyrazol-4-yl]-pyrazin-2-yl}-benzenesulfonamide] are more than 9.1 µM and more than 9.1 µM.
On the same counts, the results for `Cc1ccc(S(=O)(=O)NCCC(C)(C)O)cc1-c1cncc(-c2cn(CCN3CCOCC3)nc2C)n1` [Example 10, N-(3-Hydroxy-3-methyl-butyl)-4-methyl-3-{6-[3-methyl-1-(2-morpholin-4-yl-ethyl)-1H-pyrazol-4-yl]-pyrazin-2-yl}-benzenesulfonamide] are 8.5 µM and more than 10 µM.
As to `Cc1ccc(S(=O)(=O)N[C@H]2CC[C@H](O)CC2)cc1-c1cncc(-c2cccnc2)n1` [Example 11, Trans N-(4-Hydroxy-cyclohexyl)-4-methyl-3-(6-pyridin-3-yl-pyrazin-2-yl)-benzenesulfonamide], the concentration for half-maximal inhibition (IC50) on PI 3-kinase beta amounted to 3.93 µM; at Vps34, 3.08 µM.

The values above are taken from patent US9862711B2, “Pyrazine derivatives as phosphatidylinositol 3-kinase inhibitors” (NOVARTIS AG, priority 2014, dated 2018).
